Test results published in publication PMC3776780, “Dual p38/JNK Mitogen Activated Protein Kinase Inhibitors Prevent Ozone-Induced Airway Hyperreactivity in Guinea Pigs” (PLoS ONE, 2013).

Columns and labels:
[1] = molecular target: IRAK; assay: spectrophotometric coupled-enzyme kinase inhibition assay; assay type: biochemical; details: read-out: Ki or IC50 IRAK
Procedure: (§1) Affinity was measured using a kinase inhibition assay. Compounds were assayed for the inhibition of various kinases using a modification of a spectrophotometric coupled-enzyme assay. In this assay, a fixed concentration of activated kinase (10–40 nM) was incubated with various concentrations of a potential inhibitor dissolved in DMSO for 10 minutes at 30°C in a buffer containing 0.1 M HEPES, pH 7.5, containing 10 mM MgCl2, 2.5 mM phosphoenolpyruvate, 200 µM NADH, 2 mM DTT, 30 µg/mL pyruvate kinase, 10 µg/mL lactate dehydrogenase, and 200 µM–500 µM EGF receptor peptide. The EGF receptor peptide has the sequence […]. The reaction was initiated by the addition of ATP equal to the ATP Km of the kinase, and the assay plate is inserted into the spectrophotometer’s assay plate compartment that was maintained at 30°C. The decrease of absorbance at 340 nm was monitored as a function of time for 10 minutes. The rate data as a function of inhibitor concentration was either fit as an IC50 or to a competitive inhibition kinetic model to determine the compound Ki (see table 1).

[2] = molecular target: JNK1 (Homo sapiens, UniProt P45983); assay: as above; assay type: biochemical; details: ATP equal to Km, 30°C
Procedure: as §1

[3] = molecular target: T1, MKK4 (Homo sapiens, UniProt P45985); assay: as above; assay type: biochemical; details: read-out: Ki or IC50 MKK4
T1 sequence (P45985 1-399): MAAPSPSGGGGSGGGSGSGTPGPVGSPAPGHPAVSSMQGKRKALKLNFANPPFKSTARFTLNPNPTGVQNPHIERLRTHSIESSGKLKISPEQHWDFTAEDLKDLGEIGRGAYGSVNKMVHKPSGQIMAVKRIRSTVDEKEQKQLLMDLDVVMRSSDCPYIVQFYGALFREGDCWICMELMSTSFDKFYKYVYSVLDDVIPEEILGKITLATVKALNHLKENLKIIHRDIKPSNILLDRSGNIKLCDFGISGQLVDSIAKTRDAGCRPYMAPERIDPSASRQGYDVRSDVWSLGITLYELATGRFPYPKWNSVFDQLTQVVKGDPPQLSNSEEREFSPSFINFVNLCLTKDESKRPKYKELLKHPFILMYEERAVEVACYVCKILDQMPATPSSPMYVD
Procedure: as §1

[4] = molecular target: T2, MKK6 (Homo sapiens, UniProt P52564); assay: as above; assay type: biochemical; details: read-out: Ki or IC50 MKK6
T2 sequence (P52564 1-334): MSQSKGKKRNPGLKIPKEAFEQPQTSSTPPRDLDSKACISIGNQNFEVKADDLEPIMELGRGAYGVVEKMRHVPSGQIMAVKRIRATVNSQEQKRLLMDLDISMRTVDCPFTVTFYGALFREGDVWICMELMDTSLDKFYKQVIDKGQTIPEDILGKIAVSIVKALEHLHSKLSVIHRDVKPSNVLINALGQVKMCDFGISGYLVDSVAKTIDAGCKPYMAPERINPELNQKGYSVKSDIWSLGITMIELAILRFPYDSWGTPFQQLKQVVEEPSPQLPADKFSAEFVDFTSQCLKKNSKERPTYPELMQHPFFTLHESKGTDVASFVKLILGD
Procedure: as §1

[5] = molecular target: PIM1 (Homo sapiens, UniProt P11309); assay: as above; assay type: biochemical; details: read-out: Ki or IC50 PIM1
Procedure: as §1

[6] = molecular target: PKA (Homo sapiens, UniProt P17612); assay: as above; assay type: biochemical; details: read-out: Ki or IC50 PKA
Procedure: as §1

[7] = molecular target: T3, ZAP70 (Homo sapiens, UniProt P43403); assay: as above; assay type: biochemical; details: read-out: Ki or IC50 ZAP70
T3 sequence (P43403 1-619): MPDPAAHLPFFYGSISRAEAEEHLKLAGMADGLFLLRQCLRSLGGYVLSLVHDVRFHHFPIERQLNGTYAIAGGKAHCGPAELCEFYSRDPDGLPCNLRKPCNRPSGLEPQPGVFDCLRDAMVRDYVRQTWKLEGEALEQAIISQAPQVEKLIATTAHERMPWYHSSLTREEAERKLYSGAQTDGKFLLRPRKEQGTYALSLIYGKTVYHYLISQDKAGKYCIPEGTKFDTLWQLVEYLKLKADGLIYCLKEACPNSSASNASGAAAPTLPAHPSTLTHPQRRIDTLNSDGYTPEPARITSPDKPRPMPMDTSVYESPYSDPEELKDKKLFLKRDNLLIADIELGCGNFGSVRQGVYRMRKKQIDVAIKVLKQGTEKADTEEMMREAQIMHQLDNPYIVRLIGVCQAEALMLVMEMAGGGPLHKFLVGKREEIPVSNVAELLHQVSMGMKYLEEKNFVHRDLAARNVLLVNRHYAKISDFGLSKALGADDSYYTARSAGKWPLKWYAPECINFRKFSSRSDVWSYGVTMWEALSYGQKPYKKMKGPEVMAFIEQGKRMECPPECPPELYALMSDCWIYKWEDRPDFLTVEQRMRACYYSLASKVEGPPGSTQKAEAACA
Procedure: as §1

[8] = test system: ozone-induced airway hyperreactivity mediated by the vagus nerves; assay: vagally induced bronchoconstriction (airway hyperreactivity); assay type: in vivo, guinea pigs; details: ozone-exposed, 30 mg/kg ip 1 h before ozone, one day post-exposure, vagal stimulation 1–25 Hz
Procedure: (§2) Guinea pigs were exposed to 2 ppm ozone or filtered air for 4 hours as described previously. Physiological measurements, airway inflammation, and histological measurements were made one day after a single ozone exposure.
(§3) Animals were given 30 mg/kg intraperitoneally of the dual p38 and JNK MAPK inhibitors V-05-013, V-05-014, or V-05-015 (Vertex Pharmaceuticals, Cambridge, MA) one hour before ozone exposure (Figure 1). These compounds were chosen because of their overall kinase selectivity profile. […] Inhibitors were dissolved in 25% DMSO in phosphate buffered saline (PBS). Air exposed control animals were given 25% DMSO in PBS one hour before ozone exposure.
Physiological measurements were made as previously described. The jugular veins were cannulated for intravenous administration of drugs and the right carotid artery was cannulated to measure heart rate and blood pressure. Both vagus nerves were cut and distal ends placed on platinum electrodes submerged in liquid paraffin. Animals were tracheostomized, ventilated (1 ml/100 g body weight, 100 breaths per minute) and paralyzed with a constant infusion of succinylcholine (10 µg/kg/min iv, Sigma-Aldrich). Pulmonary inflation pressure was measured at the trachea and bronchoconstriction was measured as the increase in pressure over basal inflation pressure produced by the ventilator.
Electrical stimulation of both vagus nerves (10V, 0.2 ms pulse width, 1–25 Hz, 5 sec duration at 1 minute intervals) produced frequency dependent bronchoconstriction and bradycardia due to release of acetylcholine onto muscarinic receptors.

[9] = test system: neuronal M2 muscarinic receptors; assay: neuronal M2 muscarinic receptor function (gallamine potentiation of vagally induced bronchoconstriction); assay type: in vivo, guinea pigs; details: ozone-exposed, 30 mg/kg ip 1 h before ozone, gallamine 0.1–10 mg/kg iv
Procedure: as §2, §3
Recovery from administration of intravenous acetylcholine was confirmed by pulmonary inflation pressure and heart rate returning to baseline before measuring M2 muscarinic receptor function (5–10 minutes after the last dose of acetylcholine).

JNK1, sequence (P45983 whole entry, species assumed): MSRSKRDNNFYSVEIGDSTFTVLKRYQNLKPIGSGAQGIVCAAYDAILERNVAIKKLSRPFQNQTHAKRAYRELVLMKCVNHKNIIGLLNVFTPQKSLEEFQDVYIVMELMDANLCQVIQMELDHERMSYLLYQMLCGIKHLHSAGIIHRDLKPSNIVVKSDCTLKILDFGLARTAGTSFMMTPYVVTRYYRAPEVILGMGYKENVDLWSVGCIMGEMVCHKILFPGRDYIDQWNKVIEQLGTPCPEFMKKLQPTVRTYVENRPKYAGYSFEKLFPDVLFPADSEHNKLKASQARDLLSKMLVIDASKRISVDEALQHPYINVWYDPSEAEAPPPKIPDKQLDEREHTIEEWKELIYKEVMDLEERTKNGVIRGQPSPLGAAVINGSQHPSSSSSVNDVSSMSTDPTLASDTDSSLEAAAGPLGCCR
PIM1, sequence (P11309 whole entry, species assumed): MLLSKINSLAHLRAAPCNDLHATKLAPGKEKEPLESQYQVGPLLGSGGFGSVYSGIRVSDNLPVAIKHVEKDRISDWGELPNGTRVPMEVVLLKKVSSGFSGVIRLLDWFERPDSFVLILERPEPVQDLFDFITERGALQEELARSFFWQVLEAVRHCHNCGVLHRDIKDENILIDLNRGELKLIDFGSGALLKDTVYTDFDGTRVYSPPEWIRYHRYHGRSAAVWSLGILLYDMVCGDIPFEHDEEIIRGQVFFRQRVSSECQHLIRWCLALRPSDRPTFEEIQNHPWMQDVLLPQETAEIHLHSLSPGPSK

Ki [1] [nM] | Ki [2] [nM] | Ki [3] [nM] | Ki [4] [nM] | Ki [5] [nM] | Ki [6] [nM] | Ki [7] [nM] | SMILES | effect on ozone-induced potentiation of vagally induced bronchoconstriction [8] | effect on ozone-induced M2 receptor dysfunction [9]
> 1000 | 170 | > 1000 | > 1000 | > 1000 | > 1000 | > 1000 | OC1CCN(Cc2onc(-c3ccc(F)cc3)c2-c2ccnc(NC3CCCCC3)n2)CC1 [V-05-013] | completely prevented ozone-induced airway hyperreactivity | partially prevented M2 receptor dysfunction
> 1000 | 300 | > 1000 | > 1000 | > 1000 | > 1000 | > 1000 | OC[C@@H]1CCCN1Cc1onc(-c2ccc(F)cc2)c1-c1ccnc(NC2CCCCC2)n1 [V-05-014] | completely prevented ozone-induced airway hyperreactivity | completely protected M2 receptor function
> 1000 | 120 | > 1000 | > 1000 | > 1000 | > 1000 | > 1000 | Fc1ccc(-c2noc(CN3CCCCC3)c2-c2ccnc(NC3CCCCC3)n2)cc1 [V-05-015] | completely prevented ozone-induced airway hyperreactivity | completely protected M2 receptor function
